Key:
Type in all cases: cell-based, mouse
[1] = tested on: OT-I+ CD8+ T cells; assay: APC-free T cell activation with anti-CD3 and anti-CD28 antibodies, flow cytometry; conditions: anti-CD3 and anti-CD28 or BMDC+SIINFEKL activation; 7 days; relative to DMSO
Text: It was important to determine whether the observed effect of RGFP966 on CD8^+ T cells post-activation was due to the drug acting on T cells, on the antigen-presenting cells, or both. To do so, the effect of RGFP966 treatment on CD8^+ T cells activated was compared in parallel using either antigen-pulsed BMDCs or antibodies against CD3 and CD28. The latter method of activating T cells is free of APCs and allowed determination of whether the effect of RGFP966 required the presence of APCs.
96-well tissue culture plates were coated with 10 μg/ml α-CD3 antibodies overnight at 4° C., then washed with PBS prior to addition of OT-I^+ CD8^+ T cells (2×10^5/well) and α-CD28 antibody (2 μg/ml) (labeled as anti-CD3 and anti-CD28). OT-I^+ CD8^+ T cells from the same batch of cells were also activated in parallel on antigen-loaded BMDCs (labeled as BMDC+SIINFEKL (SEQ ID NO: 1)) were prepared as described above. T cells were activated for 7 days, with media changes on days 3 and 5, then collected for flow cytometry phenotype analysis.

[2] = tested on: OT-I+ CD8+ T cells; assay: immunoblot time course of sorted CD8+ T cells after activation; conditions: 3 μM
Method: Analysis was first made on expression of HDAC3 and its known binding partners, global histone acetylation levels, and known regulatory transcription factors of CD8^+ T cell effector function across a time course of T cell activation in the absence or presence of the HDAC3 inhibitor RGFP966.
To do so, OT-I^+ CD8^+ T cells were activated in vitro for 7 days, as described in FIG. 1 and Example 1 above. Activated cells received either 0 μM or 3 μM of HDAC3 inhibitor RGF966. Sorted CD8^+ T cells from the in vitro co-cultures were then assessed for HDAC3 and various markers by immunoblot at 2, 22, 72, 120, and 168 hours after activation (see immunoblot of FIG. 9A). The markers assessed included: NCOR1 and NCOR2 (part of the HDAC3/NCOR complex): BCL-6, T-BET, and BLIMP-1 (markers of the BCL-6-5-bet pathway): GAPDH and LAMIN BI (protein loading controls): acetylated residues H3K9 and H3K27, and histone H3 (markers of histone H3 acetylation).

[3] = tested on: OT-I+ CD8+ T cells; assay: proliferation of activated T cells (total number of live cells by flow cytometry); conditions: FIG. 3
Method: T cells treated with RGFP966 also show increased proliferation relative to untreated T cells. FIG. 3 is a bar chart the total number of live cells detected in flow cytometry for activated OT-I^+ CD8^+ T cells that have been treated with 10 μM, 1 μM RGFP966, and no RGFP966 (vehicle control).

[4] = tested on: B16-Ova cells; assay: in vitro 51Cr release cytotoxicity assay of activated OT-I+ CD8+ T cells against target cells; conditions: for specific lysis of cells expressing target antigen: 4 hours co-incubation, FIG. 4A
Method: In order to functionally assess the phenotype of OT-I^+ CD8^+ T cells activated in the presence of RGFP966, the ability of the activated T cells to kill B16 melanoma tumor cell targets expressing the cognate SIINFEKL (SEQ ID NO: 1) antigen of the OT-I TCR was assayed. The B16-Ova cells were engineered to express chicken ovalbumin in their cytosol, and express SIINFEKL (SEQ ID NO: 1) on Kb MHC I molecules when treated with IFN-γ. In preparation for the cytotoxicity assay, B16-Ova cells were treated with 10 ng/ml IFN-γ for 48 hours prior to harvest and loading with ^51Cr radionuclide. After radiolabeling, B16-Ova cells were seeded into 96-well plates (5×10^3/well) and allowed to adhere for 1 hour prior to addition of CD8^+ effector cells. OT-I^+ CD8^+ T cells were activated as described above using SIINFEKL-pulsed BMDCs in the presence of 10 μM, 1 μM, or 0 μM RGFP966. After 7 days of activation, T cells were harvested, washed to remove the drug, and counted. OT-I^+ CD8^+ effector cells were added to the assay plates containing B16-Ova target cells at the indicated ratios: there was no drug present during the cytotoxicity assay. Specific killing of targets was assessed by measurement of 51Cr release into the culture supernatant 4 hours after co-culture. To verify that genetic ablation of HDAC3 functionally recapitulated the augmented cytotoxic effector phenotype of HDAC3 inhibition using RGFP966, HDAC3-KO T cells were generated from OT-I^+ CD8^+ Cas9^+ T cells as described above, and compared with RGFP966-treated T cells from the same batch in an in vitro cytotoxicity assay.

Nc1cc(F)ccc1NC(=O)/C=C/c1cnn(C/C=C/c2ccccc2)c1 [RGFP966]
T cell effector phenotype (CD25, granzyme B, IFN-γ, TNF-α, IL-2) [1]: augmented their T cell effector phenotype across both methods of T cell activation
levels of BCL-6 [2]: no significant changes
levels of BLIMP-1 (PRDM1) [2]: no significant changes
global histone acetylation at H3K9 ([2]; after 72 hours post-activation): persistently high after 72 hours
HDAC3 protein level ([2]; immunoblot 2-168 hours): does not result in loss of HDAC3 protein
expression of T-BET (TBX21) ([2]; relative to control-treated cells): increased in the drug-treated cells relative to control-treated cells
NCOR2 level ([2]; starting at 120 hours post-activation): almost completely absent
T cell proliferation (total number of live cells) ([3]; 1 μM): increasing T cell proliferation over vehicle control
T cell proliferation (total number of live cells) ([3]; 10 μM): increasing T cell proliferation as compared to T cells treated with 1 μM RGFP966
killing of cognate antigen-expressing target cells ([4]; T cells activated in the presence of the drug, dose-dependent): kill cognate antigen-expressing target cells more effectively than untreated cells
cytotoxicity compared with control treatment ([4]; T cells activated with 1 μM): modest but non-significant increase in cytotoxicity
specific lysis of cells expressing target antigen ([4]; T cells activated with 1 μM): about 45%
specific lysis of cells expressing target antigen ([4]; T cells activated with 10 μM): ~70%

Reference: patent US12440451B2, “Compositions and methods using an epigenetic inhibitor” (DANA-FARBER CANCER INSTITUTE, INC., priority 2017, dated 2025)
